Experimental data taken from publication PMC6009956, “Design, synthesis and biological activity of N^4-phenylsubstituted-7H-pyrrolo[2,3-d]pyrimidin-4-amines as dual inhibitors of aurora kinase A and epidermal growth factor receptor kinase” (Journal of Enzyme Inhibition and Medicinal Chemistry, 2017).
Where two headings read alike, the source gives them in different places.

Legend:
aurora A kinase (AURKA) = biological target: T1, aurora A kinase (AURKA) (Homo sapiens, UniProt O14965); experiment: ADP-Glo kinase assay, Aurora A; format: biochemical
T1 construct: purchased BPS Bioscience (assay run externally by the vendor)
T1 sequence (O14965 1-403): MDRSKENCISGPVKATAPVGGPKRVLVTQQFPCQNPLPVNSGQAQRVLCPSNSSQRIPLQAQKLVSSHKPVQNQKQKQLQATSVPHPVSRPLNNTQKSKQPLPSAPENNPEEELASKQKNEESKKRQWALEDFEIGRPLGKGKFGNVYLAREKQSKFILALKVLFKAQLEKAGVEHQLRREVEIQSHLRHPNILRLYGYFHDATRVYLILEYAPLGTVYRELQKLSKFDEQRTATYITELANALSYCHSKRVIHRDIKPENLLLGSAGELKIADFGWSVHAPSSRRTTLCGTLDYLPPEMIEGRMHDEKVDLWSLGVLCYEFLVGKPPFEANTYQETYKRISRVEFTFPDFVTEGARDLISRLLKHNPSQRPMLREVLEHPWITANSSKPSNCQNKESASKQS

EGFR = EGFR (Homo sapiens, UniProt P00533); experiment: ADP-Glo kinase assay, EGFR; format: biochemical; set-up: purchased BPS Bioscience (assay run externally by the vendor)
Sequence of EGFR (P00533 25-1210): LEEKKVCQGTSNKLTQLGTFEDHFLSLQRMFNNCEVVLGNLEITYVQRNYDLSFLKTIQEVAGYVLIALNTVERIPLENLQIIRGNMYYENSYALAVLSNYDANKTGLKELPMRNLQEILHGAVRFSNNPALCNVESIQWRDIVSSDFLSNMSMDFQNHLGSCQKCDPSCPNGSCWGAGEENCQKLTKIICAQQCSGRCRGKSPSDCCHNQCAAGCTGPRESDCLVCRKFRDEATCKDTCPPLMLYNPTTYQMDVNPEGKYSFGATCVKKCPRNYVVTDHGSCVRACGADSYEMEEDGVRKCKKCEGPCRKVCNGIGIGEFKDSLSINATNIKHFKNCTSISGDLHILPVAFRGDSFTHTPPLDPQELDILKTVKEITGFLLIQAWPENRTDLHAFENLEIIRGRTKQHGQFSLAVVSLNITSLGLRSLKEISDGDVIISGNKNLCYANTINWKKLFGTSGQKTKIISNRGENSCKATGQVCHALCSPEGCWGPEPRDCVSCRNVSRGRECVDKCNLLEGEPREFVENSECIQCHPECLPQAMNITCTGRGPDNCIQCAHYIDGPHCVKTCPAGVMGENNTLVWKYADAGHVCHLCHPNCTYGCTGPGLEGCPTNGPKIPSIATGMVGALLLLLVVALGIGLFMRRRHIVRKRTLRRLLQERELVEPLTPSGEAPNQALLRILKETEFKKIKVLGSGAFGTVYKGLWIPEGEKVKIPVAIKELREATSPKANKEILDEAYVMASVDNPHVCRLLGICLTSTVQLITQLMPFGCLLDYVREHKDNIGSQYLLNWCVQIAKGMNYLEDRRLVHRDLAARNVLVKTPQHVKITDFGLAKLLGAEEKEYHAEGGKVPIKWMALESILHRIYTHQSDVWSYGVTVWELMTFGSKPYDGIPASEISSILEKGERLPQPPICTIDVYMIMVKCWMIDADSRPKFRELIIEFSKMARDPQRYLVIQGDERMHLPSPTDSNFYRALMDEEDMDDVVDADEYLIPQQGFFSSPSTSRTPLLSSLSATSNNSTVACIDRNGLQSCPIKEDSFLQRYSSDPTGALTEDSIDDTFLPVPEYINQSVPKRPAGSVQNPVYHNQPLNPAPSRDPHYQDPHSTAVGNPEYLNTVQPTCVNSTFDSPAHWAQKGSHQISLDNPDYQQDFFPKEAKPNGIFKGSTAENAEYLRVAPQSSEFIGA

In the case of `c1ccc(Oc2ccc(Nc3ncnc4[nH]ccc34)cc2)cc1` [Compound 17, N^4-(4-phenoxyphenyl)-7H-pyrrolo[2,3-d]pyrimidin-4-amine], the IC50 (aurora A kinase (AURKA); 10 µM ATP, triplicate, read-out: AURKA IC50 ± SD) is reported as 13.3 ± 3.57 µM, the IC50 (aurora A kinase (AURKA); 10 µM ATP/0.2 mg/ml Kemptide, read-out: Aurora A IC50 (dose-response curve, supplement)) is reported as 12.9 µM and the “Aurora A % Activity Set1” value (aurora A kinase (AURKA); Log[nM] 0) is reported as 100%. The “Aurora A % Activity Set2” value (aurora A kinase (AURKA); Log[nM] 0) was 94%, the “Aurora A % Activity Set3” value (aurora A kinase (AURKA); Log[nM] 0) was 93% and the “Aurora A % Activity Set1” value (aurora A kinase (AURKA); Log[nM] 1.0) was 97%. For the same compound, the “Aurora A % Activity Set2” value (aurora A kinase (AURKA); Log[nM] 1.0) was 97%, the “Aurora A % Activity Set3” value (aurora A kinase (AURKA); Log[nM] 1.0) was 97% and the “Aurora A % Activity Set1” value (aurora A kinase (AURKA); Log[nM] 1.5) was 103%. For the same compound, the “Aurora A % Activity Set2” value (aurora A kinase (AURKA); Log[nM] 1.5) was 99%, the “Aurora A % Activity Set3” value (aurora A kinase (AURKA); Log[nM] 1.5) was 106% and the “Aurora A % Activity Set1” value (aurora A kinase (AURKA); Log[nM] 2.0) was 97%. The “Aurora A % Activity Set2” value (aurora A kinase (AURKA); Log[nM] 2.0) was 100%, the “Aurora A % Activity Set3” value (aurora A kinase (AURKA); Log[nM] 2.0) was 98% and the “Aurora A % Activity Set1” value (aurora A kinase (AURKA); Log[nM] 2.5) was 102%. For the same compound, the “Aurora A % Activity Set2” value (aurora A kinase (AURKA); Log[nM] 2.5) was 96%, the “Aurora A % Activity Set3” value (aurora A kinase (AURKA); Log[nM] 2.5) was 95% and the “Aurora A % Activity Set1” value (aurora A kinase (AURKA); Log[nM] 3.0) was 77%. For the same compound, the “Aurora A % Activity Set2” value (aurora A kinase (AURKA); Log[nM] 3.0) was 81%, the “Aurora A % Activity Set3” value (aurora A kinase (AURKA); Log[nM] 3.0) was 79% and the “Aurora A % Activity Set1” value (aurora A kinase (AURKA); Log[nM] 3.5) was 65%. For the same compound, the “Aurora A % Activity Set2” value (aurora A kinase (AURKA); Log[nM] 3.5) was 63%, the “Aurora A % Activity Set3” value (aurora A kinase (AURKA); Log[nM] 3.5) was 63% and the “Aurora A % Activity Set1” value (aurora A kinase (AURKA); Log[nM] 4.0) was 46%. For the same compound, the “Aurora A % Activity Set2” value (aurora A kinase (AURKA); Log[nM] 4.0) was 42%, the “Aurora A % Activity Set3” value (aurora A kinase (AURKA); Log[nM] 4.0) was 44% and the “Aurora A % Activity Set1” value (aurora A kinase (AURKA); Log[nM] 4.5) was 41%. For the same compound, the “Aurora A % Activity Set2” value (aurora A kinase (AURKA); Log[nM] 4.5) was 39%, the “Aurora A % Activity Set3” value (aurora A kinase (AURKA); Log[nM] 4.5) was 39% and the “Aurora A % Activity Set1” value (aurora A kinase (AURKA); Log[nM] 5.0) was 34%. For the same compound, the “Aurora A % Activity Set2” value (aurora A kinase (AURKA); Log[nM] 5.0) was 34%, the “Aurora A % Activity Set3” value (aurora A kinase (AURKA); Log[nM] 5.0) was 32% and the IC50 (EGFR; 10 µM ATP, triplicate, read-out: EGFR IC50 ± SD) was 0.111 ± 0.0151 µM. For the same compound, the IC50 (EGFR; 10 µM ATP/0.2 mg/ml Poly-Glu-Tyr, read-out: EGFR IC50 (dose-response curve, supplement)) was 0.11 µM, the “EGFR % Activity Set1” value (EGFR; Log[nM] 0) was 93% and the “EGFR % Activity Set2” value (EGFR; Log[nM] 0) was 101%. For the same compound, the “EGFR % Activity Set3” value (EGFR; Log[nM] 0) was 99%, the “EGFR % Activity Set1” value (EGFR; Log[nM] 1.0) was 90% and the “EGFR % Activity Set2” value (EGFR; Log[nM] 1.0) was 91%. The “EGFR % Activity Set3” value (EGFR; Log[nM] 1.0) was 97%, the “EGFR % Activity Set1” value (EGFR; Log[nM] 1.5) was 72% and the “EGFR % Activity Set2” value (EGFR; Log[nM] 1.5) was 77%. The “EGFR % Activity Set3” value (EGFR; Log[nM] 1.5) was 83%, the “EGFR % Activity Set1” value (EGFR; Log[nM] 2.0) was 49% and the “EGFR % Activity Set2” value (EGFR; Log[nM] 2.0) was 51%. The “EGFR % Activity Set3” value (EGFR; Log[nM] 2.0) was 55%, the “EGFR % Activity Set1” value (EGFR; Log[nM] 2.5) was 24% and the “EGFR % Activity Set2” value (EGFR; Log[nM] 2.5) was 23%. The “EGFR % Activity Set3” value (EGFR; Log[nM] 2.5) was 29%, the “EGFR % Activity Set1” value (EGFR; Log[nM] 3.0) was 11% and the “EGFR % Activity Set2” value (EGFR; Log[nM] 3.0) was 10%. The “EGFR % Activity Set3” value (EGFR; Log[nM] 3.0) was 12%, the “EGFR % Activity Set1” value (EGFR; Log[nM] 3.5) was 5% and the “EGFR % Activity Set2” value (EGFR; Log[nM] 3.5) was 5%. The “EGFR % Activity Set3” value (EGFR; Log[nM] 3.5) was 5%, the “EGFR % Activity Set1” value (EGFR; Log[nM] 4.0) was 4% and the “EGFR % Activity Set2” value (EGFR; Log[nM] 4.0) was 4%. The “EGFR % Activity Set3” value (EGFR; Log[nM] 4.0) was 5%, the “EGFR % Activity Set1” value (EGFR; Log[nM] 4.5) was 5% and the “EGFR % Activity Set2” value (EGFR; Log[nM] 4.5) was 5%. The “EGFR % Activity Set3” value (EGFR; Log[nM] 4.5) was 5%, the “EGFR % Activity Set1” value (EGFR; Log[nM] 5.0) was 4% and the “EGFR % Activity Set2” value (EGFR; Log[nM] 5.0) was 4%. For the same compound, the “EGFR % Activity Set3” value (EGFR; Log[nM] 5.0) was 4%.
